Results: US9878007B2, “Syndecan peptides and polypeptides as inhibitors of vascular endothelial growth factor receptor-2 (VEGFR2) and very late antigen-4 (VLA-4)” (Wisconsin Alumni Research Foundation, priority 2015, dated 2018)

B1: HPIII: heparinase III, a bacterial enzyme that completely degrades the HS (protein, UniProt Q59289 25-659, looked up)
Heparin-sulfate lyase: QSSSITRKDFDHINLEYSGLEKVNKAVAAGNYDDAAKALLAYYREKSKAREPDFSNAEKPADIRQPIDKVTREMADKALVHQFQPHKGYGYFDYGKDINWQMWPVKDNEVRWQLHRVKWWQAMALVYHATGDEKYAREWVYQYSDWARKNPLGLSQDNDKFVWRPLEVSDRVQSLPPTFSLFVNSPAFTPAFLMEFLNSYHQQADYLSTHYAEQGNHRLFEAQRNLFAGVSFPEFKDSPRWRQTGISVLNTEIKKQVYADGMQFELSPIYHVAAIDIFLKAYGSAKRVNLEKEFPQSYVQTVENMIMALISISLPDYNTPMFGDSWITDKNFRMAQFASWARVFPANQAIKYFATDGKQGKAPNFLSKALSNAGFYTFRSGWDKNATVMVLKASPPGEFHAQPDNGTFELFIKGRNFTPDAGVFVYSGDEAIMKLRNWYRQTRIHSTLTLDNQNMVITKARQNKWETGNNLDVLTYTNPSYPNLDHQRSVLFINKKYFLVIDRAIGEATGNLGVHWQLKEDSNPVFDKTKNRVYTTYRDGNNLMIQSLNADRTSLNEEEGKVSYVYNKELKRPAFVFEKPKKNAGTQNFVSIVYPYDGQKAPEISIRENKGNDFEKGKLNLTLTINGKQQLVLVP

Legend:
[1] = system: P3x63Ag8 mouse myeloma cells; assay: Invasion of P3x63Ag8 myeloma cells through FN-coated filters; assay type: cell-based; details: 16 hr
Method: (§1) FIG. 7A-B. S1ED^214-236, specific for VEGFR2 coupling to VLA-4, blocks myeloma cell invasion but not adhesion. (FIG. 7A) P3x63Ag8 mouse myeloma cells are plating on the VLA-4 ligand FN in the presence or absence of 30 uM S1ED^210-233 (SEQ ID No: 4) or S1ED^214-236 (SEQ ID No: 7) for 2.5 hr. (FIG. 7B) P3x63Ag8 myeloma cells are plated on FN-coated filters in the presence of HPSE inhibitor OGT2115, VLA-4 blocking antibody P1H4, VEGFR2 inhibitor Vandetanib or S1ED^210-233 or S1ED^214-236 and allowed to migrate through the filter for 16 hr. Small black dots are the pores in the filter.
The bottom chambers of Transwell filter chambers (8 μm pores; Corning) were coated with 40 μg/ml of FN. Cells (5×10^5 in 0.2 ml plating medium) were placed in the upper chamber and incubated for 16 hr at 37° C. in the CO2 incubator. After incubation, cells in the upper chamber were removed and cells on the bottom side of the filter were fixed in 4% paraformaldehyde (PFA) and stained with 0.1% Crystal Violet before imaging. Cells from at least five random fields were counted.

[2] = system: P3x63Ag8 mouse myeloma cells; assay: Adhesion of P3x63Ag8 myeloma cells to FN; assay type: cell-based; details: 30 uM peptide, 2.5 hr
Method: as §1
Nitrocellulose-coated slides were coated for 2 hr at 37° C. with 40 μg/ml FN (kindly provided by Dr. Donna Peters, University of Wisconsin-Madison) or 5 μg/ml recombinant VCAM-1/Fc chimera (R&D Systems) in calcium and magnesium-free PBS (CMF-PBS; 135 mM NaCl, 2.7 mM KCl, 10.2 mM Na2HPO4-7H20 and 1.75 mM KH2PO4, pH7.4). Slides were blocked for 1 hr at 37° C. with RPMI 1640 containing 1% heat-denatured BSA (plating medium). Cells in plating medium were allowed to attach and spread for 2.5 hr at 37° C. Slides were fixed in 4% EM grade paraformaldehyde (Electron Microscopy Sciences) in CMF-PBS and labeled for 30 min in 0.13 μM rhodamine phalloidin (Invitrogen) in CMF-PBS. Coverslips were mounted in non-fluorescing mounting medium (Immumount; Thermo Shandon) and allowed to dry. […]

CAG myeloma cells = assay: Cell spreading / attachment assay of CAG myeloma cells on FN or VCAM-1; assay type: cell-based, human; details: heparinase III pre-treatment before plating on FN and VCAM-1
Method: Nitrocellulose-coated slides were coated for 2 hr at 37° C. with 40 μg/ml FN (kindly provided by Dr. Donna Peters, University of Wisconsin-Madison) or 5 μg/ml recombinant VCAM-1/Fc chimera (R&D Systems) in calcium and magnesium-free PBS (CMF-PBS; 135 mM NaCl, 2.7 mM KCl, 10.2 mM Na2HPO4-7H20 and 1.75 mM KH2PO4, pH7.4). Slides were blocked for 1 hr at 37° C. with RPMI 1640 containing 1% heat-denatured BSA (plating medium). Cells in plating medium were allowed to attach and spread for 2.5 hr at 37° C. Slides were fixed in 4% EM grade paraformaldehyde (Electron Microscopy Sciences) in CMF-PBS and labeled for 30 min in 0.13 μM rhodamine phalloidin (Invitrogen) in CMF-PBS. Coverslips were mounted in non-fluorescing mounting medium (Immumount; Thermo Shandon) and allowed to dry. All images were acquired with a Nikon Microphot FX microscope using a 20× objective (Nikon; Ex 541-551, DM 580, Barrier 590), Photometric CoolSnap ES camera, and version 7.7.3.0 Metamorph© Imaging software (Molecular Devices). All images represent results from triplicate wells and at least three independent experiments.

Molecule	invasion / migration of P3X cells through FN-coated filters [1]	adhesion of P3X cells to FN [2]	induction of HPSE^low cell spreading (CAG myeloma cells)
S1ED^214-236: syndecan-1 ectodomain peptide, residues 214-236 (SEQ ID NO: 7) (ETSGENTAVVAVEPDRRNQSPVD)	blocked by either peptide	without effect	
O=C(O)Cc1ccc2oc(-c3ccc(NC(=O)/C=C/c4ccc(Br)cc4)c(F)c3)nc2c1 [OGT2115, reference compound]	Cell migration is only observed in the untreated controls		
B1			induces spreading of HPSE^low cells comparable to that observed for HPSE^high cells
